Measured values: patent publication US20160175313A1, “ENTECAVIR MICROSPHERES AND PHARMACEUTICAL COMPOSITION FOR PARENTERAL ADMINISTRATION CONTAINING SAME” (priority 2013, published 2016)

Experiments:
[1] = Solubility of entecavir in organic solvent; type: physicochemical
HBV = conditions: first-time patients, oral preparations, cited from earlier work
rats = system: rats
Description: A test was conducted to determine whether local irritation is caused by subcutaneous administration of entecavir into rats.
After entecavir (2.33 mg/kg/day) was subcutaneously injected into 15 male rats per each group, mortality, common symptoms, body weight, autopsy and histopathological evaluation on 1, 4, 5, 8 and 12 weeks were checked to compare with the control group in which excipient was administered.

[2] = orally administered; cited from earlier work
[3] = rat, in vivo, sc, 2.33 mg/kg/day

## C=C1[C@H](CO)[C@@H](O)C[C@@H]1n1cnc2c(=O)[nH]c(N)nc21 [entecavir, Entecavir]
[1]
  solubility in methylene chloride: insoluble
HBV; 1 year
  patients HBV-undetectable after 1 year of administration: about 70%
HBV; 3 years
  patients HBV-undetectable after 3 years: about 90%
rats; male rats, 2.33 mg/kg/day subcutaneous, checked up to 12 weeks
  mortality: no dead animal was observed
rats; rat, in vivo, sc
  local toxicity, overall conclusion: did not show harmful local toxicity
rats; [3]
  abnormal symptoms and abnormal body weight change related to administration: not observed
  autopsy results: no abnormal finding
  inflammation (histopathology): inflammation was observed
  recovery from inflammation: all animals recovered from inflammation
rats; rats, 4 weeks after subcutaneous administration, 2.33 mg/kg/day
  injection site microscopy (H&E staining), inflammatory cells: some subcutaneous tissue inflammatory cells were observed
[2]
  bioavailability: ~100%
